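The compound was tested at five concentrations on cells cultured in 96-well plates, with a 48-hour exposure period. Abbreviation: GI50, concentration required for 50% inhibition of growth. TGI marks complete inhibition of growth.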
Assays:
Experiment in all cases: NCI anticancer screen, dose series, 48 h
U251 CNS = system: U251 CNS
HOP-62 NSCLC = system: HOP-62 NSCLC
PC-3 prostate = system: PC-3 prostate
SK-MEL-5 melanoma = system: SK-MEL-5 melanoma
786-0 renal = system: 786-0 renal
NCI-H460 lung = system: NCI-H460 lung
HL-60(TB) leukemia = system: HL-60(TB) leukemia
KM12 colon = system: KM12 colon
DU-145 prostate = system: DU-145 prostate
MDA-MB-435 = system: MDA-MB-435

Row | SMILES | GI50 (U251 CNS) | TGI (U251 CNS) | GI50 (HOP-62 NSCLC) | TGI (HOP-62 NSCLC) | TGI (PC-3 prostate) | TGI (SK-MEL-5 melanoma) | GI50 (786-0 renal) | TGI (786-0 renal) | GI50 (NCI-H460 lung) | TGI (NCI-H460 lung) | TGI (HL-60(TB) leukemia) | GI50 (KM12 colon) | TGI (KM12 colon) | GI50 (PC-3 prostate) | GI50 (SK-MEL-5 melanoma) | GI50 (DU-145 prostate) | TGI (DU-145 prostate) | GI50 (MDA-MB-435) | TGI (MDA-MB-435) | GI50 (HL-60(TB) leukemia)
1 | CC1CCC2C(C)C(=O)OC3OC4(C)CCC1C32OO4 (stereo not drawn) | > 100 µM | > 100 µM | > 100 µM | > 100 µM | > 100 µM | > 100 µM | > 100 µM | > 100 µM | > 100 µM | > 100 µM | > 100 µM | > 100 µM | > 100 µM |  |  |  |  |  |  | 
2 | O=C(C=Nc1ccccc1C(=O)[O-])c1cccs1.O=C(C=Nc1ccccc1C(=O)[O-])c1cccs1.[Ni+2] |  | > 100 µM |  | > 100 µM |  |  |  | > 100 µM |  | > 100 µM | > 100 µM |  | > 100 µM |  |  |  |  |  |  | 
3 | O=[N+]([O-])c1cc(-c2nc(=S)[nH][nH]2)ccc1O |  | > 100 µM |  | > 100 µM |  | > 100 µM |  | > 100 µM |  | > 100 µM | > 100 µM |  | > 100 µM |  |  |  |  |  |  | 
4 | O=C(O)CN(c1ccccc1)S(=O)(=O)c1cccc([N+](=O)[O-])c1 |  | > 100 µM |  |  |  | > 100 µM |  | > 100 µM |  | > 100 µM | > 100 µM |  | > 100 µM |  |  |  |  |  |  | 
5 | Nc1nc(N)c(CCCCc2ccccc2)c(C=O)n1 |  | 49.6 µM |  | > 100 µM |  | 34.9 µM |  | 29.4 µM |  | > 100 µM |  |  | 40.8 µM |  |  |  |  |  |  | 
6 | O=C1/C(=C/c2ccc([N+](=O)[O-])s2)Oc2cc(Cl)ccc21 | 1.02 µM | 2.21 µM | 7.9 µM | > 100 µM | 1.75 µM | 2.57 µM | 2.9 µM | 7.35 µM | 1.84 µM | > 100 µM |  | 0.758 µM | 4.56 µM | 0.387 µM | 1.2 µM | 3.81 µM | > 100 µM |  |  | 
7 | COC(=O)[C@H]1COC(=S)N1C(=O)[C@@H](C)[C@H](O)C(C)C |  | > 100 µM |  | > 100 µM |  | > 100 µM |  | > 100 µM |  | > 100 µM | > 100 µM |  | > 100 µM |  |  |  |  |  |  | 
8 | COc1cc2c(cc1OC)C(C#N)N(C(=O)c1ccccc1)C=C2OC(=O)c1ccccc1 (stereo not drawn) |  | 74.7 µM |  | 35.2 µM |  | 44.9 µM |  | 34.7 µM |  | > 100 µM | > 100 µM |  | > 100 µM |  |  |  |  |  |  | 
9 | COc1ccc2c(c1)[n+]([O-])c(-c1cccc(Cl)c1)c(N)[n+]2[O-] |  | > 100 µM |  | > 100 µM |  | 39.5 µM |  | > 100 µM |  | > 100 µM | 95.6 µM |  | > 100 µM |  |  |  |  |  |  | 
10 | Cc1cc(=O)[nH]c(CNC(=O)c2ccc3ccccc3c2)n1 |  | > 100 µM |  | > 100 µM |  | > 100 µM |  | > 100 µM |  | > 100 µM | > 100 µM |  | > 100 µM |  |  |  |  |  |  | 
11 | O=C(NC(=Nc1ccccc1)SCSC(=Nc1ccccc1)NC(=O)c1ccco1)c1ccco1 |  | > 100 µM |  | 44.9 µM |  | > 100 µM |  | > 100 µM |  | > 100 µM |  |  | > 100 µM |  |  |  |  |  |  | 
12 | CC1(C)CC(=O)C=C(/C=C/Sc2c(Cl)c(Cl)nc(Cl)c2Cl)C1 | 14.8 µM | 28.5 µM | 12.9 µM | 27.8 µM | 14.1 µM | 24.4 µM | 3.92 µM | 15.2 µM | 11.8 µM | 32.1 µM |  | 11.6 µM | 26.2 µM | 3.54 µM | 11.8 µM | 10 µM | 21.7 µM | 2.88 µM | 8.2 µM | 
13 | COC(=O)Oc1nn(C(=O)OC)c(=O)c2ccccc12 |  | > 100 µM |  | > 100 µM | > 100 µM | > 100 µM |  | > 100 µM |  |  | > 100 µM |  | > 100 µM |  |  |  | > 100 µM |  | > 100 µM | 
14 | COc1ccc(Nc2nc3cc(C(F)(F)F)ccc3nc2-c2ccccc2)cc1OC |  | > 100 µM |  | 39.3 µM |  | > 100 µM |  | > 100 µM |  | > 100 µM |  |  | > 100 µM |  |  |  |  |  |  | 
15 | O=C(Cc1ccccc1[N+](=O)[O-])C(CO)c1ccccc1[N+](=O)[O-] (stereo not drawn) |  | > 100 µM |  | > 100 µM |  | > 100 µM |  | > 100 µM |  | > 100 µM | > 100 µM |  | > 100 µM |  |  |  |  |  |  | 
16 | COC(=O)C1CSC(c2csc(CCN)n2)=N1 (stereo not drawn) |  | > 100 µM |  |  |  | > 100 µM |  | > 100 µM |  | > 100 µM | > 100 µM |  | > 100 µM |  |  |  |  |  |  | 
17 | O=C(COc1ccccc1Cl)N1N=C(c2ccccc2)CC1(O)c1ccccc1 (stereo not drawn) |  | 23.9 µM |  | 28.5 µM |  |  |  | 31 µM |  | 32 µM | 30.6 µM |  | 41.8 µM |  |  |  |  |  |  | 
18 | N#CCCN(CCC#N)c1ccc(/C=C(/NC(=O)c2cc([N+](=O)[O-])ccc2Cl)C(=O)NN)cc1 |  | > 100 µM |  | > 100 µM |  | > 100 µM |  | > 100 µM |  | > 100 µM |  |  | > 100 µM |  |  |  |  |  |  | 
19 | N/C=N/S(=O)(=O)c1ccc(NC(=O)COC(=O)c2cccc3c(=O)c4ccccc4[nH]c23)cc1 |  | > 100 µM |  | > 100 µM |  | > 100 µM |  | > 100 µM |  | > 100 µM | > 100 µM |  | > 100 µM |  |  |  |  |  |  | 
20 | COC(=O)C1=COC2OC3C(C(C)O)C(=O)OC34C=CC1C24 (stereo not drawn) |  | > 100 µM |  |  | > 100 µM | > 100 µM |  | > 100 µM |  | > 100 µM | 39.7 µM |  | > 100 µM |  |  |  | > 100 µM |  | > 100 µM | 
21 | Cc1cc(Cl)nc2ccc(Cc3ccc4nc(Cl)cc(C)c4c3)cc12 |  | 79.3 µM |  | 96.9 µM | > 100 µM | > 100 µM |  | 30.7 µM |  | > 100 µM |  |  | > 100 µM |  |  |  | > 100 µM |  | > 100 µM | 
22 | c1ccc2c(c1)SC(=C1Sc3ccccc3S1)S2 |  | > 100 µM |  | > 100 µM |  |  |  | > 100 µM |  | > 100 µM |  |  |  |  |  |  |  |  |  | 
23 | CC1(C)NC(=O)N(CCCCCCN2C(=O)NC(C)(C)C2=O)C1=O |  | > 100 µM |  |  |  |  |  | > 100 µM |  | > 100 µM |  |  | > 100 µM |  |  |  |  |  |  | 
24 | CCCCCCCCCCCCCC[n+]1ccccc1 | 0.426 µM | 1.77 µM |  |  | 0.774 µM | 1.43 µM | 1.04 µM | 2.42 µM | 1.22 µM | 2.73 µM | 0.838 µM | 0.855 µM | 2.25 µM | 0.204 µM | 0.369 µM | 1.17 µM | 2.85 µM | 0.549 µM | 1.87 µM | 0.262 µM
25 | [O-]/N=[N+](/[O-])C1CCCCC1=[N+]1CCOCC1 (stereo not drawn) |  | > 100 µM |  | > 100 µM |  |  |  | > 100 µM |  | > 100 µM | > 100 µM |  | > 100 µM |  |  |  |  |  |  | 
26 | OCC1OC2c3ccccc3COC2C1OCc1ccccc1 (stereo not drawn) |  | > 100 µM |  |  |  | > 100 µM |  | > 100 µM |  | > 100 µM |  |  | > 100 µM |  |  |  |  |  |  | 
